Experimental data taken from patent US7192906B2, “Substituted pyrazole derivatives, production process thereof, and herbicide compositions containing the derivatives” (SDS Biotech K.K., priority 2001, dated 2007).

How the values were obtained:
Type in all cases: in vivo
Setaria viridis [1] = experiment: Test Example 1 upland field foliage treatment; conditions: Table 4, upland field foliage treatment, index 0-5
Procedure: (§1) A plastic pot of 130 cm^2 was filled with upland soil. Subsequently, weed seeds of Setaria viridis, Digitaria adscendens, Chenopodium album and Stellaria media, and crop seeds of soybean (Glycine max) and wheat (Triticum aestivum), were sowed and covered with soil of about 1 cm thickness. On the 14th day after the sowing, the wettable powder prepared in Formulation Example 1 was diluted with water such that the amount of the active ingredient became 1 kg per hectare, and then uniformly applied to the plant leaf surfaces. On the 21st day after the application, observation and evaluation were carried out according to the criteria described below.
(§2) Herbicidal activity was evaluated based on the following criteria.
(§3) • 5: herbicidal effect of not less than 90%, or phytotoxicity of 90% or more • 4: herbicidal effect of not less than 70% and less than 90%, or phytotoxicity of 70% or more and less than 90% • 3: herbicidal effect of not less than 50% and less than 70%, or phytotoxicity of 50% or more and less than 70% • 2: herbicidal effect of not less than 30% and less than 50%, or phytotoxicity of 30% or more and less than 50% • 1: herbicidal effect of not less than 10% and less than 30%, or phytotoxicity of 10% or more and less than 30% • 0: herbicidal effect of not less than 0% and less than 10%, or phytotoxicity of 0% or more and less than 10%

Stellaria media [2] = experiment: Test Example 1 upland field foliage treatment; conditions: Table 4, upland field foliage treatment, index 0-5
Procedure: as §1, §2, §3

Chenopodium album [3] = experiment: Test Example 1 upland field foliage treatment; conditions: Table 4, upland field foliage treatment, index 0-5
Procedure: as §1, §2, §3

Digitaria adscendens [4] = experiment: Test Example 1 upland field foliage treatment; conditions: Table 4, upland field foliage treatment, index 0-5
Procedure: as §1, §2, §3

[5] = system: wheat (Triticum aestivum); experiment: Test Example 1 upland field foliage treatment, crop phytotoxicity; conditions: Table 4, upland field foliage treatment, index 0-5
Procedure: as §1, §2, §3

soybean (Glycine max) [6] = experiment: as above; conditions: Table 4, upland field foliage treatment, index 0-5
Procedure: as §1, §2, §3

Rice (Oryza sativa) = experiment: Test Example 3 paddy field treatment, crop phytotoxicity; conditions: active ingredient 1 kg per hectare, index 0-5; for Herbicidal activity OS (phytotoxicity to rice): paddy field treatment, transplanted rice Koshihikari, wettable powder, 21st day after the dropping; for Herbicidal activity (phytotoxicity) OS: Table 6, paddy field treatment, transplanted rice, 21st day after dropping
Procedure: (§4) A plastic pot of 130 cm^2 was filled with paddy soil, and soil puddling was carried out to adjust the submerged depth to 4 cm. Subsequently, seeds of Echinochloa crusgalli, Monochoria vaginalis, Ammannia multiflora and Scirpus juncoides were sowed, and rice (Oryza sative, variety: Koshihikari) of two-leaf period was transplanted by 2 rice plants of 1 stub per pot at a depth of 3 cm. On the 10th day after the transplantation, the wettable powder prepared in Formulation Example 1 was diluted with water such that the amount of the active ingredient became 1 kg per hectare, and then dropped to diffuse on the water surface. On the 21st day after the dropping, observation and evaluation were carried out according to the aforesaid criteria.
as §2, §3

Echinochloa crusgalli = experiment: Test Example 3 paddy field treatment; conditions: active ingredient 1 kg per hectare, index 0-5
Procedure: as §4, §2, §3

Scirpus juncoides = experiment: Test Example 3 paddy field treatment; conditions: active ingredient 1 kg per hectare, index 0-5
Procedure: as §4, §2, §3

Ammannia multiflora = experiment: Test Example 3 paddy field treatment; conditions: active ingredient 1 kg per hectare, index 0-5
Procedure: as §4, §2, §3

Monochoria vaginalis = experiment: Test Example 3 paddy field treatment; conditions: active ingredient 1 kg per hectare, index 0-5
Procedure: as §4, §2, §3

[7] = system: wheat (Triticum aestivum); experiment: Test Example 2 upland soil treatment, crop phytotoxicity; conditions: Table 5, upland soil treatment, index 0-5
Procedure: as §1, with “next” for “14th”, “soil surface.” for “plant leaf surfaces.”, “aforesaid criteria.” for “criteria described below.”
as §2, §3

soybean (Glycine max) [8] = experiment: as above; conditions: Table 5, upland soil treatment, index 0-5
Procedure: as §1, with “next” for “14th”, “soil surface.” for “plant leaf surfaces.”, “aforesaid criteria.” for “criteria described below.”
as §2, §3

Setaria viridis [9] = experiment: Test Example 2 upland soil treatment; conditions: Table 5, upland soil treatment, index 0-5
Procedure: as §1, with “next” for “14th”, “soil surface.” for “plant leaf surfaces.”, “aforesaid criteria.” for “criteria described below.”
as §2, §3

Stellaria media [10] = experiment: Test Example 2 upland soil treatment; conditions: Table 5, upland soil treatment, index 0-5
Procedure: as §1, with “next” for “14th”, “soil surface.” for “plant leaf surfaces.”, “aforesaid criteria.” for “criteria described below.”
as §2, §3

Chenopodium album [11] = experiment: Test Example 2 upland soil treatment; conditions: Table 5, upland soil treatment, index 0-5
Procedure: as §1, with “next” for “14th”, “soil surface.” for “plant leaf surfaces.”, “aforesaid criteria.” for “criteria described below.”
as §2, §3

Digitaria adscendens [12] = experiment: Test Example 2 upland soil treatment; conditions: Table 5, upland soil treatment, index 0-5
Procedure: as §1, with “next” for “14th”, “soil surface.” for “plant leaf surfaces.”, “aforesaid criteria.” for “criteria described below.”
as §2, §3

[13] = paddy field treatment, wettable powder, 21st day after the dropping
[14] = Table 6, paddy field treatment, 21st day after dropping

SMILES	Herbicidal activity SV: Setaria viridis (Setaria viridis [1])	Herbicidal activity SM: Stellaria media (Stellaria media [2])	Herbicidal activity CA: Chenopodium album (Chenopodium album [3])	Herbicidal activity DA: Digitaria adscendens (Digitaria adscendens [4])	Herbicidal activity (phytotoxicity) TA: Wheat (Triticum aestivum) [5]	Herbicidal activity (phytotoxicity) GM: Soybean (Glycine max) (soybean (Glycine max) [6])	Herbicidal activity (phytotoxicity) OS (Rice (Oryza sativa))	Herbicidal activity EC (Echinochloa crusgalli; [14])	Herbicidal activity SJ (Scirpus juncoides; [14])	Herbicidal activity AM (Ammannia multiflora; [14])	Herbicidal activity MV (Monochoria vaginalis; [14])	further results
CNC(=O)C(Cn1cc(C)c(C2CCCCC2)n1)=NOC [Compound 11]	3 (herbicidal effect of not less than 50% and less than 70%, or phytotoxicity of 50% or more and less than 70%)	3 (herbicidal effect of not less than 50% and less than 70%, or phytotoxicity of 50% or more and less than 70%)	5 (herbicidal effect of not less than 90%, or phytotoxicity of 90% or more)	5 (herbicidal effect of not less than 90%, or phytotoxicity of 90% or more)	0 (herbicidal effect of not less than 0% and less than 10%, or phytotoxicity of 0% or more and less than 10%)	0 (herbicidal effect of not less than 0% and less than 10%, or phytotoxicity of 0% or more and less than 10%)	–	–	–	–	–	Herbicidal activity OS (phytotoxicity to rice) (Rice (Oryza sativa)): 1 (herbicidal effect of not less than 10% and less than 30%, or phytotoxicity of 10% or more and less than 30%); Herbicidal activity EC (Echinochloa crusgalli; [13]): 5 (herbicidal effect of not less than 90%, or phytotoxicity of 90% or more); Herbicidal activity SJ (Scirpus juncoides; [13]): 5 (herbicidal effect of not less than 90%, or phytotoxicity of 90% or more); Herbicidal activity AM (Ammannia multiflora; [13]): 5 (herbicidal effect of not less than 90%, or phytotoxicity of 90% or more); Herbicidal activity MV (Monochoria vaginalis; [13]): 5 (herbicidal effect of not less than 90%, or phytotoxicity of 90% or more)
CNC(=O)C(Cn1ccc(-c2ccccc2)n1)=NOC [Compound 13]	3 (herbicidal effect of not less than 50% and less than 70%, or phytotoxicity of 50% or more and less than 70%)	4 (herbicidal effect of not less than 70% and less than 90%, or phytotoxicity of 70% or more and less than 90%)	4 (herbicidal effect of not less than 70% and less than 90%, or phytotoxicity of 70% or more and less than 90%)	4 (herbicidal effect of not less than 70% and less than 90%, or phytotoxicity of 70% or more and less than 90%)	0 (herbicidal effect of not less than 0% and less than 10%, or phytotoxicity of 0% or more and less than 10%)	0 (herbicidal effect of not less than 0% and less than 10%, or phytotoxicity of 0% or more and less than 10%)	–	–	–	–	–	Herbicidal activity (phytotoxicity) TA: Wheat (Triticum aestivum) [7]: 0 (herbicidal effect of not less than 0% and less than 10%, or phytotoxicity of 0% or more and less than 10%); Herbicidal activity (phytotoxicity) GM: Soybean (Glycine max) (soybean (Glycine max) [8]): 0 (herbicidal effect of not less than 0% and less than 10%, or phytotoxicity of 0% or more and less than 10%); Herbicidal activity SV: Setaria viridis (Setaria viridis [9]): 4 (herbicidal effect of not less than 70% and less than 90%, or phytotoxicity of 70% or more and less than 90%); Herbicidal activity SM: Stellaria media (Stellaria media [10]): 5 (herbicidal effect of not less than 90%, or phytotoxicity of 90% or more); Herbicidal activity CA: Chenopodium album (Chenopodium album [11]): 5 (herbicidal effect of not less than 90%, or phytotoxicity of 90% or more); Herbicidal activity DA: Digitaria adscendens (Digitaria adscendens [12]): 4 (herbicidal effect of not less than 70% and less than 90%, or phytotoxicity of 70% or more and less than 90%)
CNC(=O)C(Cn1cc(C)c(-c2ccccc2F)n1)=NOC [Compound 42]	5 (herbicidal effect of not less than 90%, or phytotoxicity of 90% or more)	5 (herbicidal effect of not less than 90%, or phytotoxicity of 90% or more)	5 (herbicidal effect of not less than 90%, or phytotoxicity of 90% or more)	5 (herbicidal effect of not less than 90%, or phytotoxicity of 90% or more)	0 (herbicidal effect of not less than 0% and less than 10%, or phytotoxicity of 0% or more and less than 10%)	0 (herbicidal effect of not less than 0% and less than 10%, or phytotoxicity of 0% or more and less than 10%)	–	–	–	–	–	Herbicidal activity OS (phytotoxicity to rice) (Rice (Oryza sativa)): 0 (herbicidal effect of not less than 0% and less than 10%, or phytotoxicity of 0% or more and less than 10%); Herbicidal activity EC (Echinochloa crusgalli; [13]): 5 (herbicidal effect of not less than 90%, or phytotoxicity of 90% or more); Herbicidal activity SJ (Scirpus juncoides; [13]): 5 (herbicidal effect of not less than 90%, or phytotoxicity of 90% or more); Herbicidal activity AM (Ammannia multiflora; [13]): 5 (herbicidal effect of not less than 90%, or phytotoxicity of 90% or more); Herbicidal activity MV (Monochoria vaginalis; [13]): 5 (herbicidal effect of not less than 90%, or phytotoxicity of 90% or more)
CNC(=O)C(Cn1cc(C)c(-c2ccc(C#N)cc2)n1)=NOC [Compound 51]	–	–	–	–	–	–	–	–	–	–	–	Herbicidal activity (phytotoxicity) TA: Wheat (Triticum aestivum) [7]: 0 (herbicidal effect of not less than 0% and less than 10%, or phytotoxicity of 0% or more and less than 10%); Herbicidal activity (phytotoxicity) GM: Soybean (Glycine max) (soybean (Glycine max) [8]): 0 (herbicidal effect of not less than 0% and less than 10%, or phytotoxicity of 0% or more and less than 10%); Herbicidal activity SV: Setaria viridis (Setaria viridis [9]): 4 (herbicidal effect of not less than 70% and less than 90%, or phytotoxicity of 70% or more and less than 90%); Herbicidal activity SM: Stellaria media (Stellaria media [10]): 4 (herbicidal effect of not less than 70% and less than 90%, or phytotoxicity of 70% or more and less than 90%); Herbicidal activity CA: Chenopodium album (Chenopodium album [11]): 4 (herbicidal effect of not less than 70% and less than 90%, or phytotoxicity of 70% or more and less than 90%); Herbicidal activity DA: Digitaria adscendens (Digitaria adscendens [12]): 4 (herbicidal effect of not less than 70% and less than 90%, or phytotoxicity of 70% or more and less than 90%)
CNC(=O)C(Cn1cc(C)c(-c2ccc(OC)cc2OC(F)F)n1)=NOC [Compound 91]	–	–	–	–	–	–	0 (herbicidal effect of not less than 0% and less than 10%, or phytotoxicity of 0% or more and less than 10%)	5 (herbicidal effect of not less than 90%, or phytotoxicity of 90% or more)	4 (herbicidal effect of not less than 70% and less than 90%, or phytotoxicity of 70% or more and less than 90%)	5 (herbicidal effect of not less than 90%, or phytotoxicity of 90% or more)	5 (herbicidal effect of not less than 90%, or phytotoxicity of 90% or more)	–
CON=C(Cn1cc(C)c(-c2ccccc2)n1)C(=O)N1CCCCC1 [Compound 119]	–	–	–	–	–	–	0 (herbicidal effect of not less than 0% and less than 10%, or phytotoxicity of 0% or more and less than 10%)	3 (herbicidal effect of not less than 50% and less than 70%, or phytotoxicity of 50% or more and less than 70%)	3 (herbicidal effect of not less than 50% and less than 70%, or phytotoxicity of 50% or more and less than 70%)	4 (herbicidal effect of not less than 70% and less than 90%, or phytotoxicity of 70% or more and less than 90%)	4 (herbicidal effect of not less than 70% and less than 90%, or phytotoxicity of 70% or more and less than 90%)	–
CON=C(Cn1cc(C)c(-c2ccccc2)n1)C(=O)NNC(=O)OC [Compound 123]	–	–	–	–	–	–	0 (herbicidal effect of not less than 0% and less than 10%, or phytotoxicity of 0% or more and less than 10%)	3 (herbicidal effect of not less than 50% and less than 70%, or phytotoxicity of 50% or more and less than 70%)	3 (herbicidal effect of not less than 50% and less than 70%, or phytotoxicity of 50% or more and less than 70%)	4 (herbicidal effect of not less than 70% and less than 90%, or phytotoxicity of 70% or more and less than 90%)	4 (herbicidal effect of not less than 70% and less than 90%, or phytotoxicity of 70% or more and less than 90%)	–
